Laboratory results reported in ChEMBL document CHEMBL1154845, “Neocomplanines A and B, a complanine family isolated from the marine fireworm” (J Nat Prod, 2010).
Active and inactive are the calls of the source. The rule behind the calls is not given here.

How the values were obtained:
Mus musculus = assay: Toxicity in sc dosed mouse assessed as foot-pad swelling over 5 hrs relative to control; format: organism-based; conditions: in vivo
[1] = Activation of PKC assessed as [gamma32P] incorporation at 2 mM after 15 mins by scintillation counting in presence of TPA
[2] = Activation of PKC assessed as [gamma32P] incorporation at greater than 0.5 mM after 15 mins by scintillation counting in presence of Ca2+
[3] = Activation of PKC assessed as [gamma32P] incorporation after 15 mins by scintillation counting in presence of TPA

SMILES	Activity (Mus musculus)	Activity [1]	Activity [2]	Activity [3]
CC/C=C\C/C=C\CC[C@@H](O)CNC(=O)CCC[N+](C)(C)C.[I-] [COMPLANINE]	Toxic	10.9 pmol/min		
CC(C)CCCCC(O)CNC(=O)CCC[N+](C)(C)C.[I-] (stereo not drawn) [NEOCOMPLANINE A]	Toxic		Active	Dose-dependent effect
CCCCCCCC(O)CNC(=O)CCC[N+](C)(C)C.[I-] (stereo not drawn) [NEOCOMPLANINE B]	Toxic		Active	Dose-dependent effect
